Source: US20210070748A1, “INHIBITORS OF BRUTONS TYROSINE KINASE” (Pharmacyclics LLC, priority 2015, published 2021)
Like-named read-outs stand apart in the source and are kept apart here.

Tests used:
Format in all cases: biochemical
TEC = molecular target: T1, TEC (Homo sapiens, UniProt P42680); experiment: Inhibition of a panel of kinases, in vitro HotSpot kinase assay: TEC
T1 sequence (P42680 1-631): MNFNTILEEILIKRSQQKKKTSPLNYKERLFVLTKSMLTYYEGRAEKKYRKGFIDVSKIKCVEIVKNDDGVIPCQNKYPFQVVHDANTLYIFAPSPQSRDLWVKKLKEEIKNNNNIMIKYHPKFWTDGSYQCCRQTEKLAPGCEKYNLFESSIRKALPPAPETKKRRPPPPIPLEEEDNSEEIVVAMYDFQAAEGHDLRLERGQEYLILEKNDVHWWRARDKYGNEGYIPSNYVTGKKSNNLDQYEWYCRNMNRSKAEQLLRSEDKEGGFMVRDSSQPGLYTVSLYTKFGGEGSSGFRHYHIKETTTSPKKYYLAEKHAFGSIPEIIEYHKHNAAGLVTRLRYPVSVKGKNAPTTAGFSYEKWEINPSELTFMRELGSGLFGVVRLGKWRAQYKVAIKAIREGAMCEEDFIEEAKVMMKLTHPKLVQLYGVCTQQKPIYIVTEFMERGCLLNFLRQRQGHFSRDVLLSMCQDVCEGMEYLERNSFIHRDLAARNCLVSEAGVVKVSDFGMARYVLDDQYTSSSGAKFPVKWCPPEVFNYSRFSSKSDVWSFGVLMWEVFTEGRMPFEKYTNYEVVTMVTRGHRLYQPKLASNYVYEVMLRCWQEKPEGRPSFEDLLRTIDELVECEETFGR
Method: (§1) The degree of inhibition of a panel of kinases is determined using the in vitro HotSpot kinase assay (purified enzymes, ^33P-ATP, an appropriate substrate and 1 μM ATP).

BTK-WT = molecular target: T2, BTK-WT (Homo sapiens, UniProt Q06187); experiment: Btk in vitro inhibitory activity (one of Method A TR-FRET, Method B electrophoretic mobility shift, Method C radiometric filter binding); settings: read-out: IC50 BTK-WT
T2 construct: purified from insect cells as a full-length construct containing an N-terminal 6X-His tag; His6 (N); made in house; host or cells: insect cells (baculovirus Sf21 in Method B)
T2 sequence (Q06187 whole entry): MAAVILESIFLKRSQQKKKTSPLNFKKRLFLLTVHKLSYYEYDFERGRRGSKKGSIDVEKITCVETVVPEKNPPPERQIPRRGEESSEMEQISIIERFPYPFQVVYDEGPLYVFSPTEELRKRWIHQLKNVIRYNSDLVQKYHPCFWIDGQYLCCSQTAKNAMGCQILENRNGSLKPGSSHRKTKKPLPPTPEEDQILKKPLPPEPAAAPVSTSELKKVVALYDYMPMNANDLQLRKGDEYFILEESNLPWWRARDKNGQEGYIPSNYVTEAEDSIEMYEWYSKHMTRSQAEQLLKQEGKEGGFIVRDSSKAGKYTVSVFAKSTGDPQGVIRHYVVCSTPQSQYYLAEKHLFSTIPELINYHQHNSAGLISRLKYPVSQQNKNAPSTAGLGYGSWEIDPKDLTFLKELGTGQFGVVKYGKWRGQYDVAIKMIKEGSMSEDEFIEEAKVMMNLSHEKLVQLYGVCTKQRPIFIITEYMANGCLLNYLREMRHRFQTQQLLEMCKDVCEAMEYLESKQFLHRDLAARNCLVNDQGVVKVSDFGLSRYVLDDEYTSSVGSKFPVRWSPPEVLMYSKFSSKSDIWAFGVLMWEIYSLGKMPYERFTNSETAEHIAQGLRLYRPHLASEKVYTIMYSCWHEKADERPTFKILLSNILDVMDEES

ITK = molecular target: T3, ITK (Homo sapiens, UniProt Q08881); experiment: Inhibition of a panel of kinases, in vitro HotSpot kinase assay: ITK
T3 sequence (Q08881 1-620): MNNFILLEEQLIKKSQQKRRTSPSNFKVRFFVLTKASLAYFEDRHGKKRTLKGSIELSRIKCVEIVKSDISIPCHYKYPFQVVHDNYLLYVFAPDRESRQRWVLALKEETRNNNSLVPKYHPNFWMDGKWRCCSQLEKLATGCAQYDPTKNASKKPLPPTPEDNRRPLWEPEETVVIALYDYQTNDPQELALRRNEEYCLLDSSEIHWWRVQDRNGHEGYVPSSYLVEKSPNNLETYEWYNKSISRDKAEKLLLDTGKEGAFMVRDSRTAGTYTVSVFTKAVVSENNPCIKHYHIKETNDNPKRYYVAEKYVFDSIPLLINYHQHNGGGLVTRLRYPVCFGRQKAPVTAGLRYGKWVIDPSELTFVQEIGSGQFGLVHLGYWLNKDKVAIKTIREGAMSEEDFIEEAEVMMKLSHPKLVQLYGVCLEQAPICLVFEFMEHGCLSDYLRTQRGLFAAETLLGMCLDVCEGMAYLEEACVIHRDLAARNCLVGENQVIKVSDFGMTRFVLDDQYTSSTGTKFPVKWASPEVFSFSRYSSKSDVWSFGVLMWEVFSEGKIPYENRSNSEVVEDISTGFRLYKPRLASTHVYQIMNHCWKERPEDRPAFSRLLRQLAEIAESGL
Method: as §1

LCK = LCK (Homo sapiens, UniProt P06239); experiment: Inhibition of a panel of kinases, in vitro HotSpot kinase assay: LCK; settings: read-out: IC50 LCK
Sequence of LCK (P06239 whole entry): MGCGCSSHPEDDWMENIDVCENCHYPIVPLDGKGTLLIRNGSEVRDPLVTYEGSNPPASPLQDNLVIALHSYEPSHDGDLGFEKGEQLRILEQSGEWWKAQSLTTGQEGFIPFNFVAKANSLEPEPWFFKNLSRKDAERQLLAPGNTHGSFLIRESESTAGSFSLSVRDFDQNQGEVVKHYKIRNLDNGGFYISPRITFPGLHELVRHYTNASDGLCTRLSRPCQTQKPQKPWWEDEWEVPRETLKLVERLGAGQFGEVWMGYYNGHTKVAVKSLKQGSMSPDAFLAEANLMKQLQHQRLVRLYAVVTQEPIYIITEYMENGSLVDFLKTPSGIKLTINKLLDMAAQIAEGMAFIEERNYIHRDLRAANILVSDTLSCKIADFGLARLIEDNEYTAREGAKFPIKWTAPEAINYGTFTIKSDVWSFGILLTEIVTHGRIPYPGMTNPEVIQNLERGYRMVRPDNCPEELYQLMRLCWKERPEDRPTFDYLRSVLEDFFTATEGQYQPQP

SRC = SRC (Homo sapiens, UniProt P12931); experiment: Inhibition of a panel of kinases, in vitro HotSpot kinase assay: SRC
Sequence of SRC (P12931 whole entry): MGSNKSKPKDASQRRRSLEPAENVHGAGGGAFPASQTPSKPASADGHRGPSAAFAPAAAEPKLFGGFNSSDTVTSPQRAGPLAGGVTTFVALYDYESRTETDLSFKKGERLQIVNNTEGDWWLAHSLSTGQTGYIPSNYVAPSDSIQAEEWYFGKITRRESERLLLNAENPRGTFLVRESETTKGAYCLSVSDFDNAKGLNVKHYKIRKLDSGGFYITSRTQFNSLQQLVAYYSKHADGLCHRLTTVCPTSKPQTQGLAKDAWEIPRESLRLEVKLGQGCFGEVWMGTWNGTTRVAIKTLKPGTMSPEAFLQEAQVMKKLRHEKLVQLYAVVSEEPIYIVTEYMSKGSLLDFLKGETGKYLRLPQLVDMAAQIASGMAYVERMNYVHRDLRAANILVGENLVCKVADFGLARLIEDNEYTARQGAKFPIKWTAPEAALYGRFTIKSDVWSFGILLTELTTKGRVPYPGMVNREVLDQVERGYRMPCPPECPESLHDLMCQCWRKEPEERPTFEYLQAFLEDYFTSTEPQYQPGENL
Method: as §1

[1] = D-compounds panel data, 1 μM ATP

C[C@@H]1[C@H](NC(=O)c2ccc(C3CC3)cc2)CCCN1c1cnc(C(N)=O)c(Nc2ccc(OC3CCN(C)CC3)cc2)n1 [Example D-89]
IC50 (TEC; [1]): 10 to 100 nM | IC50 (BTK-WT; D-compounds panel data): ≤ 10 nM | IC50 (ITK; [1]): 100 to 1000 nM | IC50 (LCK; [1]): 10 to 100 nM | IC50 (SRC; [1]): 10 to 100 nM

C[C@@H]1[C@H](NC(=O)C23CC(C2)C3)CCCN1c1cnc(C(N)=O)c(Nc2cnn(C)c2)n1 [Example D-90, 5-[(2R,3R)-3-{bicyclo[1.1.1]pentane-1-amido}-2-methylpiperidin-1-yl]-3-[(1-methyl-1H-pyrazol-4-yl)amino]pyrazine-2-carboxamide]
IC50 (TEC; [1]): 10 to 100 nM | IC50 (BTK-WT; D-compounds panel data): 10 to 100 nM | IC50 (ITK; [1]): 100 to 1000 nM | IC50 (LCK; [1]): 100 to 1000 nM | IC50 (SRC; [1]): 100 to 1000 nM

C[C@@H]1[C@H](NC(=O)c2ccc(C(F)(F)F)nc2)CCCN1c1cnc(C(N)=O)c(Nc2cnn(C)c2)n1 [Example D-91, 3-[(1-methyl-1H-pyrazol-4-yl)amino]-5-[(2R,3R)-2-methyl-3-[6-(trifluoromethyl)pyridine-3-amido]piperidin-1-yl]pyrazine-2-carboxamide]
IC50 (TEC; [1]): 10 to 100 nM | IC50 (BTK-WT; D-compounds panel data): ≤ 10 nM | IC50 (ITK; [1]): 100 to 1000 nM | IC50 (LCK; [1]): 10 to 100 nM | IC50 (SRC; [1]): 10 to 100 nM

C[C@@H]1[C@H](NC(=O)c2ccc(C3CC3)cc2)CCCN1c1cnc(C(N)=O)c(Nc2ccc(N3CCN(C)CC3)c(C(F)(F)F)c2)n1 [Example D-92, 5-[(2R,3R)-3-(4-cyclopropylbenzamido)-2-methylpiperidin-1-yl]-3-{[4-(4-methylpiperazin-1-yl)-3-(trifluoromethyl)phenyl]amino}pyrazine-2-carboxamide]
IC50 (TEC; [1]): 10 to 100 nM | IC50 (BTK-WT; D-compounds panel data): ≤ 10 nM | IC50 (ITK; [1]): 1000 to 10000 nM | IC50 (LCK; [1]): 100 to 1000 nM | IC50 (SRC; [1]): 100 to 1000 nM

C[C@@H]1[C@H](N2CCN(C)C2=O)CCCN1c1cnc(C(N)=O)c(Nc2cnn(C)c2)n1 [Example D-93, 3-[(1-methyl-1H-pyrazol-4-yl)amino]-5-[(2R,3R)-2-methyl-3-(3-methyl-2-oxoimidazolidin-1-yl)piperidin-1-yl]pyrazine-2-carboxamide]
IC50 (TEC; [1]): 10 to 100 nM | IC50 (BTK-WT; D-compounds panel data): 10 to 100 nM | IC50 (ITK; [1]): 100 to 1000 nM | IC50 (LCK; [1]): 100 to 1000 nM | IC50 (SRC; [1]): 10 to 100 nM

C[C@@H]1[C@H](NC(=O)c2ccc(C(C)(C)CO)cc2)CCCN1c1cnc(C(N)=O)c(Nc2cnn(C)c2)n1 [Example D-94, 5-[(2R,3R)-3-[4-(1-hydroxy-2-methylpropan-2-yl)benzamido]-2-methylpiperidin-1-yl]-3-[(1-methyl-1H-pyrazol-4-yl)amino]pyrazine-2-carboxamide]
IC50 (TEC; [1]): 10 to 100 nM | IC50 (BTK-WT; D-compounds panel data): ≤ 10 nM | IC50 (ITK; [1]): 100 to 1000 nM | IC50 (LCK; [1]): 100 to 1000 nM | IC50 (SRC; [1]): 10 to 100 nM

C[C@@H]1[C@H](NC(=O)c2ccc(C3CC3)cc2)CCCN1c1cnc(C(N)=O)c(Nc2ccc(CN3CCOCC3)cc2)n1 [Example D-316, 5-[(2R,3R)-3-(4-cyclopropylbenzamido)-2-methylpiperidin-1-yl]-3-{[4-(morpholin-4-ylmethyl)phenyl]amino}pyrazine-2-carboxamide]
IC50 (TEC; [1]): 10 to 100 nM | IC50 (BTK-WT; D-compounds panel data): ≤ 10 nM | IC50 (ITK; [1]): 100 to 1000 nM | IC50 (LCK; [1]): 10 to 100 nM | IC50 (SRC; [1]): 10 to 100 nM

C[C@@H]1[C@H](NC(=O)c2ccc(C3CC3)cc2)CCCN1c1cnc(C(N)=O)c(Nc2ccc(C3CCOCC3)cc2)n1 [Example D-317, 5-[(2R,3R)-3-(4-cyclopropylbenzamido)-2-methylpiperidin-1-yl]-3-{[4-(oxan-4-yl)phenyl]amino}pyrazine-2-carboxamide]
IC50 (TEC; [1]): 10 to 100 nM | IC50 (BTK-WT; D-compounds panel data): ≤ 10 nM | IC50 (ITK; [1]): > 10000 nM | IC50 (LCK; [1]): > 10000 nM | IC50 (SRC; [1]): > 10000 nM

C[C@@H]1[C@H](NC(=O)c2ccc(C3CC3)cc2)CCCN1c1cnc(C(N)=O)c(Nc2cnc(N3CCN(C)CC3)nc2)n1 [Example D-318, 5-[(2R,3R)-3-(4-cyclopropylbenzamido)-2-methylpiperidin-1-yl]-3-{[2-(4-methylpiperazin-1-yl)pyrimidin-5-yl]amino}pyrazine-2-carboxamide]
IC50 (TEC; [1]): 10 to 100 nM | IC50 (BTK-WT; D-compounds panel data): ≤ 10 nM | IC50 (ITK; [1]): 100 to 1000 nM | IC50 (LCK; [1]): 100 to 1000 nM | IC50 (SRC; [1]): 100 to 1000 nM

C[C@@H]1[C@H](NC(=O)c2ccc(C3CC3)cc2)CCCN1c1cnc(C(N)=O)c(Nc2cnn(CC3CCOCC3)c2)n1 [Example D-319, 5-[(2R,3R)-3-(4-cyclopropylbenzamido)-2-methylpiperidin-1-yl]-3-{[1-(oxan-4-ylmethyl)-1H-pyrazol-4-yl]amino}pyrazine-2-carboxamide]
IC50 (TEC; [1]): ≤ 10 nM | IC50 (BTK-WT; D-compounds panel data): ≤ 10 nM | IC50 (ITK; [1]): 100 to 1000 nM | IC50 (LCK; [1]): 100 to 1000 nM | IC50 (SRC; [1]): 10 to 100 nM

C[C@@H]1[C@H](NC(=O)c2ccc(C3CC3)cc2)CCCN1c1cnc(C(N)=O)c(Nc2ccc(N3CCC(C(=O)N(C)C)CC3)cc2)n1 [Example D-320, 5-[(2R,3R)-3-(4-cyclopropylbenzamido)-2-methylpiperidin-1-yl]-3-({4-[4-(dimethylcarbamoyl)piperidin-1-yl]phenyl}amino)pyrazine-2-carboxamide]
IC50 (TEC; [1]): ≤ 10 nM | IC50 (BTK-WT; D-compounds panel data): ≤ 10 nM | IC50 (ITK; [1]): 10 to 100 nM | IC50 (LCK; [1]): 10 to 100 nM | IC50 (SRC; [1]): 10 to 100 nM

C[C@@H]1[C@H](NC(=O)c2ccc(C3CC3)cc2)CCCN1c1cnc(C(N)=O)c(Nc2cnn(CC3CCC(F)(F)CC3)c2)n1 [Example D-321, 5-[(2R,3R)-3-(4-cyclopropylbenzamido)-2-methylpiperidin-1-yl]-3-({1-[(4,4-difluorocyclohexyl)methyl]-1H-pyrazol-4-yl}amino)pyrazine-2-carboxamide]
IC50 (TEC; [1]): 10 to 100 nM | IC50 (BTK-WT; D-compounds panel data): 10 to 100 nM | IC50 (ITK; [1]): 100 to 1000 nM | IC50 (LCK; [1]): 1000 to 10000 nM | IC50 (SRC; [1]): 100 to 1000 nM

C=CC(=O)N1CC[C@@H](N(C)c2cnc(C(N)=O)c(Nc3ccc(C4(C)CCN(C5CC5)CC4)cc3)n2)C1 [Example E-104, (R)-5-((1-acryloylpyrrolidin-3-yl)(methyl)amino)-3-(4-(1-cyclopropyl-4-methylpiperidin-4-yl)phenylammo)pyrazine-2-carboxamide]
IC50 (TEC; E compounds, Table 17): ≤ 10 nM | IC50 (BTK-WT; E compounds, Table 17): ≤ 10 nM | IC50 (ITK; E compounds, Table 17): ≤ 10 nM | IC50 (LCK; E compounds, Table 17): 10 to 100 nM | IC50 (SRC; E compounds, Table 17): 10 to 100 nM

C=CC(=O)N1CC[C@@H](N(C)c2cnc(C(N)=O)c(Nc3ccc(C4(C)CCN(C5CCCC5)CC4)cc3)n2)C1 [Example E-106, (R)-5-((1-acryloylpyrrolidin-3-yl)(methyl)amino)-3-(4-(1-cyclopentyl-4-methylpiperidin-4-yl)phenylamino)pyrazine-2-carboxamide]
IC50 (TEC; E compounds, Table 17): ≤ 10 nM | IC50 (BTK-WT; E compounds, Table 17): ≤ 10 nM | IC50 (ITK; E compounds, Table 17): ≤ 10 nM | IC50 (LCK; E compounds, Table 17): 10 to 100 nM | IC50 (SRC; E compounds, Table 17): ≤ 10 nM

C=CC(=O)N1CCC[C@@H](Nc2cnc(C(N)=O)c(Nc3ccc(C4CCN(C5CCCC5)CC4)cc3)n2)C1 [Example E-108, (R)-5-(1-acryloylpiperidin-3-ylamino)-3-(4-(1-cyclopentylpiperidin-4-yl)phenylamino)pyrazine-2-carboxamide]
IC50 (TEC; E compounds, Table 17): ≤ 10 nM | IC50 (BTK-WT; E compounds, Table 17): ≤ 10 nM | IC50 (ITK; E compounds, Table 17): ≤ 10 nM | IC50 (LCK; E compounds, Table 17): 10 to 100 nM | IC50 (SRC; E compounds, Table 17): 10 to 100 nM
